Reference: article PMC10507085, “Pharmacological inhibition of TBK1/IKKε blunts immunopathology in a murine model of SARS-CoV-2 infection” (Nature Communications, 2023)

Key:
Assay in all cases: biochemical
CDC2L2 = target: T1, CDC2L2 (Homo sapiens, UniProt Q9UQ88); parameters: KINOMEscan competition binding, DNA-tagged kinase against immobilised ligand, qPCR read-out; conditions: read-out: Percent Control
T1 construct: gene CDK11A
Procedure: (§1) The KINOMEscan^TM kinase assays[65] were performed by Eurofins DiscoverX Corporation. For each kinase, the assay relies on the ability of the tested compound to compete against an immobilised ligand for binding to the DNA-tagged kinase. RT-qPCR is then used to measure the quantity of kinase molecules bound to the immobilised ligand, which is decreased if the tested compound competed with the kinase-ligand interaction. An 11-point 3-fold serial dilution of IDX compound was prepared in 100% DMSO at 100× final test concentration and subsequently diluted to 1× in the assay. […]

ACVRL1 = ACVRL1 (Homo sapiens, UniProt P37023); parameters: KINOMEscan competition binding, DNA-tagged kinase against immobilised ligand, qPCR read-out; conditions: read-out: Percent Control
Procedure: as §1

GAK = GAK (Homo sapiens, UniProt O14976); parameters: KINOMEscan competition binding, DNA-tagged kinase against immobilised ligand, qPCR read-out; conditions: read-out: Percent Control
Procedure: as §1

CDK4-cyclinD1 = CDK4-cyclinD1 (Homo sapiens, UniProt P11802); parameters: KINOMEscan competition binding, DNA-tagged kinase against immobilised ligand, qPCR read-out; conditions: read-out: Percent Control
Procedure: as §1

NEK10 = NEK10 (Homo sapiens, UniProt Q6ZWH5); parameters: KINOMEscan competition binding, DNA-tagged kinase against immobilised ligand, qPCR read-out; conditions: read-out: Percent Control
Procedure: as §1

PAK7 = target: T2, PAK7 (Homo sapiens, UniProt Q9P286); parameters: KINOMEscan competition binding, DNA-tagged kinase against immobilised ligand, qPCR read-out; conditions: read-out: Percent Control
T2 construct: gene PAK5
Procedure: as §1

CSNK1G3 = CSNK1G3 (Homo sapiens, UniProt Q9Y6M4); parameters: KINOMEscan competition binding, DNA-tagged kinase against immobilised ligand, qPCR read-out; conditions: read-out: Percent Control
Procedure: as §1

STK4 = STK4 (Homo sapiens, UniProt Q13043); parameters: KINOMEscan competition binding, DNA-tagged kinase against immobilised ligand, qPCR read-out; conditions: read-out: Percent Control
Procedure: as §1

BMX = BMX (Homo sapiens, UniProt P51813); parameters: KINOMEscan competition binding, DNA-tagged kinase against immobilised ligand, qPCR read-out; conditions: read-out: Percent Control
Procedure: as §1

MAPK9 = MAPK9 (Homo sapiens, UniProt P45984); parameters: KINOMEscan competition binding, DNA-tagged kinase against immobilised ligand, qPCR read-out; conditions: read-out: Percent Control
Procedure: as §1

PIM2 [1] = target: T3, PIM2 (Homo sapiens, UniProt Q9P1W9); parameters: KINOMEscan competition binding, DNA-tagged kinase against immobilised ligand, qPCR read-out; conditions: read-out: Percent Control
DRAK1 = target: T4, DRAK1 (Homo sapiens, UniProt Q9UEE5); parameters: KINOMEscan competition binding, DNA-tagged kinase against immobilised ligand, qPCR read-out; conditions: read-out: Percent Control
T4 construct: gene STK17A
T4 sequence (Q9UEE5 1-414): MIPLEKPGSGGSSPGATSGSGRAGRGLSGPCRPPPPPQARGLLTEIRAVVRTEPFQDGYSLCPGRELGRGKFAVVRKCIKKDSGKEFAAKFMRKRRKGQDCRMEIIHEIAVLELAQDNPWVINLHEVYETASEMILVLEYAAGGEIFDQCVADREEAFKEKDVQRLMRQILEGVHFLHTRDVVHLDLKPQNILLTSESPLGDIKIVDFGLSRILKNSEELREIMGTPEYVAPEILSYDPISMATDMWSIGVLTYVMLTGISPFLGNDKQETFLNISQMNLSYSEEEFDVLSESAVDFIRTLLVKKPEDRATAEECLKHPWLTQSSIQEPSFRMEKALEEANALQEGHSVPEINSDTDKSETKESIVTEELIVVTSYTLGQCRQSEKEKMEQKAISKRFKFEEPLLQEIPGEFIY

PIM2 [2] = target: T3, PIM2; parameters: KINOMEscan competition binding, DNA-tagged kinase against immobilised ligand, qPCR read-out
PKNB(M.tuberculosis) = PKNB(M.tuberculosis) (Mycobacterium tuberculosis, UniProt P9WI81); parameters: KINOMEscan competition binding, DNA-tagged kinase against immobilised ligand, qPCR read-out; conditions: read-out: Percent Control
DYRK1B = DYRK1B (Homo sapiens, UniProt Q9Y463); conditions: read-out: Percent Control
LTK = LTK (Homo sapiens, UniProt P29376); conditions: read-out: Percent Control
PFPK5(P.falciparum) = target: T5, PFPK5(P.falciparum) (Plasmodium falciparum, UniProt P61075); parameters: KINOMEscan competition binding, DNA-tagged kinase against immobilised ligand, qPCR read-out; conditions: read-out: Percent Control
T5 construct: gene CRK2
T5 sequence (P61075 whole entry): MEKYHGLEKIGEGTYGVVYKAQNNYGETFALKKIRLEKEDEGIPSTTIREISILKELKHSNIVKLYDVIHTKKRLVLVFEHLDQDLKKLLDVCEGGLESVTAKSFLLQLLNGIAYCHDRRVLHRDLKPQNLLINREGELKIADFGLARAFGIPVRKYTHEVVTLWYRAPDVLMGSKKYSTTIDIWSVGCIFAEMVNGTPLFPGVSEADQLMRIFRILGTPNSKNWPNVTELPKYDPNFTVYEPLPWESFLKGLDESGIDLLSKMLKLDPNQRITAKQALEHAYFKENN

T3 sequence (Q9P1W9 whole entry): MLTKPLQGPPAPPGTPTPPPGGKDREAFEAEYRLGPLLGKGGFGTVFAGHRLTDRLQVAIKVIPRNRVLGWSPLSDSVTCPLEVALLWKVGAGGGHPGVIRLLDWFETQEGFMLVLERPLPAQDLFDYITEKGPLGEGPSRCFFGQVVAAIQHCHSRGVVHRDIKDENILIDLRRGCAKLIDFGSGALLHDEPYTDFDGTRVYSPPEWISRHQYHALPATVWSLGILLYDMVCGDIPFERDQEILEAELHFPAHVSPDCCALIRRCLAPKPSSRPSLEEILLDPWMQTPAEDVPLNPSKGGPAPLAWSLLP
Chain of CSNK1G3 (Q9Y6M4 whole entry): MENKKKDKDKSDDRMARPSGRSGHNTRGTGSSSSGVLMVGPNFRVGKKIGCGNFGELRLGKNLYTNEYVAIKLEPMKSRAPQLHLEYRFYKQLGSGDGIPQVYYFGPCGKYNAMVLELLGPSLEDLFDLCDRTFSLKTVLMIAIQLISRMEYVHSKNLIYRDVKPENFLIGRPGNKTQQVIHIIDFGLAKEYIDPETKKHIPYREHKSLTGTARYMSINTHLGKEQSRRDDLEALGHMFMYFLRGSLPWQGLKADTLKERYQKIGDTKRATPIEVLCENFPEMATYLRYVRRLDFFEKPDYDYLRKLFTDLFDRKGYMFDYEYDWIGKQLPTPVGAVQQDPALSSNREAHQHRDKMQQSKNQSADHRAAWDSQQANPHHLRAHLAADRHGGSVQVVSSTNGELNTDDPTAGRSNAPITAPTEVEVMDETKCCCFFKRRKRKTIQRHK
Chain of LTK (P29376 whole entry): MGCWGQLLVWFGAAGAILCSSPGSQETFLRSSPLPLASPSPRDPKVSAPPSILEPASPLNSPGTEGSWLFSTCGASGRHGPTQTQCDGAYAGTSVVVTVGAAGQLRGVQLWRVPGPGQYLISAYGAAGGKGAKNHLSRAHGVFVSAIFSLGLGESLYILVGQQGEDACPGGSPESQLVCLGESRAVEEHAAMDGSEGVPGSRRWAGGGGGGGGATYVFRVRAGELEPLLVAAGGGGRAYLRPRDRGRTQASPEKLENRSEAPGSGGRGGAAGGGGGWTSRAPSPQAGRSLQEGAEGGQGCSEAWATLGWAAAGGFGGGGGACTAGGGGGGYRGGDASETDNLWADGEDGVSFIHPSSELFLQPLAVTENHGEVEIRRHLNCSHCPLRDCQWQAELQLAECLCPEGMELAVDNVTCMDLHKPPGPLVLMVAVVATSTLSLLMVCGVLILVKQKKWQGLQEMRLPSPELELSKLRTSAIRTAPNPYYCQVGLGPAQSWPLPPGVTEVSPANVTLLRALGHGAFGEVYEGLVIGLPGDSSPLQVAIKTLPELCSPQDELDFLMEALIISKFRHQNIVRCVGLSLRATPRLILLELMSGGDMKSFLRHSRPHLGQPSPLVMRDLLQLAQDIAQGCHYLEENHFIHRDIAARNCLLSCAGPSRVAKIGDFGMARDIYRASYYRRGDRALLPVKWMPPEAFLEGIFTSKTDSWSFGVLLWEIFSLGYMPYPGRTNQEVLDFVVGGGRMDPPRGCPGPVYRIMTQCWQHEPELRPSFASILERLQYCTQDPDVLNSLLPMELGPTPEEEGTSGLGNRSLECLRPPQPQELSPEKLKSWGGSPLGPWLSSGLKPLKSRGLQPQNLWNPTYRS
T1 sequence (Q9UQ88 whole entry): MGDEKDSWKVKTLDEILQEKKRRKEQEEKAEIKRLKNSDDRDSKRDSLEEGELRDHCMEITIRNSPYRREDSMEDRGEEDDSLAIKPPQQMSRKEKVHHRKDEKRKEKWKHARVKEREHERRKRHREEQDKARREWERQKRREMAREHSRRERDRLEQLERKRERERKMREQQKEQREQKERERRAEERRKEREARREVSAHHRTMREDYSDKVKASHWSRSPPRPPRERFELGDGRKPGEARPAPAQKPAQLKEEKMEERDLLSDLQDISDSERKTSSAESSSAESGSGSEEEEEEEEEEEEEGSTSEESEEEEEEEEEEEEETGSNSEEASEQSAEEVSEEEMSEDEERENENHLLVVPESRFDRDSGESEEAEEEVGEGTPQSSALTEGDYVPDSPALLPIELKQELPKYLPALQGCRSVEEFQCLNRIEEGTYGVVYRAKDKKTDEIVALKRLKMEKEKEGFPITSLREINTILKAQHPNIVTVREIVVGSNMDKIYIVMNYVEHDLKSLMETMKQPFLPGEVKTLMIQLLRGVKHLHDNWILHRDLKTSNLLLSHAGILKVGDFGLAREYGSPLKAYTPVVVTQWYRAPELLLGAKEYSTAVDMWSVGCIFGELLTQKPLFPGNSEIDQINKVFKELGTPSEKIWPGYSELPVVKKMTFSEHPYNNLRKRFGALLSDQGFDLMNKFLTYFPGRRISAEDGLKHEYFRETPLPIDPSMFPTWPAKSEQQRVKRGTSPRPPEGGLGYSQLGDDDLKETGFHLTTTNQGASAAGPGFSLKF
Chain of BMX (P51813 whole entry): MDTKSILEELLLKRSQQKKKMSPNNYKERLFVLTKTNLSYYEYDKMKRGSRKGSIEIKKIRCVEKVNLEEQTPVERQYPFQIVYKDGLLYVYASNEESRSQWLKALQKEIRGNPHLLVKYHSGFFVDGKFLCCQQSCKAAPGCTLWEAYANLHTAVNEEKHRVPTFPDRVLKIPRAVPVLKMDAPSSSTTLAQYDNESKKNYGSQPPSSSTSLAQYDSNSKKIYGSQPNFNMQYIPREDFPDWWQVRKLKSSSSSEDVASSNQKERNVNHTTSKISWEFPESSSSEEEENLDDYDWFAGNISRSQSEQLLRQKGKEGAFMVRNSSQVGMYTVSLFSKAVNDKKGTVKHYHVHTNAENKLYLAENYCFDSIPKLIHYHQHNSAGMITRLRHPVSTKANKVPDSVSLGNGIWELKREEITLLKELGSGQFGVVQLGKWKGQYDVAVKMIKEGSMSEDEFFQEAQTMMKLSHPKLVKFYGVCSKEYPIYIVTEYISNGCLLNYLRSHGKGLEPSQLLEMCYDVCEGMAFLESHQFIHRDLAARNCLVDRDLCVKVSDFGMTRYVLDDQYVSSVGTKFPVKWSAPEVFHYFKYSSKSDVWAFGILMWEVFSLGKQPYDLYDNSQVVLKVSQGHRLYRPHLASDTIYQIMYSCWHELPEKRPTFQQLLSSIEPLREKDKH
Chain of NEK10 (Q6ZWH5 whole entry): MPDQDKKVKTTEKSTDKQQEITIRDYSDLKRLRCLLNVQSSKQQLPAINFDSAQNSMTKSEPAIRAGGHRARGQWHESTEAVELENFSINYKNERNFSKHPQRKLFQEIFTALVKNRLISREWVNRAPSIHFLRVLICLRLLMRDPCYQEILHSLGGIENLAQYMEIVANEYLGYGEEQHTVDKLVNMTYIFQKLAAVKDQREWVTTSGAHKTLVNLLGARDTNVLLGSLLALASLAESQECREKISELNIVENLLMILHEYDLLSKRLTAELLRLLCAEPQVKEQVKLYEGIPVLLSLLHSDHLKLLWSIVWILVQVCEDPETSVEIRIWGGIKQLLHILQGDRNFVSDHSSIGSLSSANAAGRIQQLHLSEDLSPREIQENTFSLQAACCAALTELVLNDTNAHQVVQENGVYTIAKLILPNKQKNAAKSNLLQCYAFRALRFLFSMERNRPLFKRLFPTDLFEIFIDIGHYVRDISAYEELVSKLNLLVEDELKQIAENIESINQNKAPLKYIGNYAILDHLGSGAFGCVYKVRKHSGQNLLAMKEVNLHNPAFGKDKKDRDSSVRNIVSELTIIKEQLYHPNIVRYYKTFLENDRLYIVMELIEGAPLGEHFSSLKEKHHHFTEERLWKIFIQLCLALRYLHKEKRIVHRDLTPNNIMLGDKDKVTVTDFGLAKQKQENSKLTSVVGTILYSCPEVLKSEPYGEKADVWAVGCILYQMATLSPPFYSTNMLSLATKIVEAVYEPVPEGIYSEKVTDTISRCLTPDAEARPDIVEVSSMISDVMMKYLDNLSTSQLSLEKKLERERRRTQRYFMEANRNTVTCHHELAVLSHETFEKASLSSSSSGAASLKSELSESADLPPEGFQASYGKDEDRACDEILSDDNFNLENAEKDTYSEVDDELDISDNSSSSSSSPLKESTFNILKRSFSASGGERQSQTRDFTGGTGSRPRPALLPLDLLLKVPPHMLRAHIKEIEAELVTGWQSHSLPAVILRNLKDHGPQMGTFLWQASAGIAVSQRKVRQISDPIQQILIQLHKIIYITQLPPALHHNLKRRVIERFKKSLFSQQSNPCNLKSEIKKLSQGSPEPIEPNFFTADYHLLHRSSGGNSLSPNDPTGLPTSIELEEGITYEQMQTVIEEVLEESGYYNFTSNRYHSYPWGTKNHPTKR
Chain of STK4 (Q13043 whole entry): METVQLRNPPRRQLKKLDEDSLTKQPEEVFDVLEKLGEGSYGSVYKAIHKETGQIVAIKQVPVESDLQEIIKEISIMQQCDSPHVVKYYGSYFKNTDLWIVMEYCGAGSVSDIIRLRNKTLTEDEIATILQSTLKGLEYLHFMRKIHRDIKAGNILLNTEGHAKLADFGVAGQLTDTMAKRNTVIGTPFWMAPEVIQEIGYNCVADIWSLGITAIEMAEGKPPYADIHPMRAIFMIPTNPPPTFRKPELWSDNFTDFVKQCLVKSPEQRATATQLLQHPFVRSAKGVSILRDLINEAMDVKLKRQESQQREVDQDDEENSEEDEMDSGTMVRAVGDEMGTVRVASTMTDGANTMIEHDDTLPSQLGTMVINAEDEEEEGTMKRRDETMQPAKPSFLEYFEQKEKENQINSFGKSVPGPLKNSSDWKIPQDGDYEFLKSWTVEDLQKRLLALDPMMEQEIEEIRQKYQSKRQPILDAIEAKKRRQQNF

Compound: Oc1ccc(C2=Cc3ccc(O)cc3OC2)cc1 [compound 1, idronoxil]
- remaining binding at 10 µM (CDC2L2): 69%
- remaining binding at 10 µM (ACVRL1): 92%
- remaining binding at 10 µM (GAK): 58%
- remaining binding at 10 µM (CDK4-cyclinD1): 94%
- remaining binding at 10 µM (NEK10): 69%
- remaining binding at 10 µM (PAK7): 95%
- remaining binding at 10 µM (CSNK1G3): 100%
- remaining binding at 10 µM (STK4): 97%
- remaining binding at 10 µM (BMX): 75%
- remaining binding at 10 µM (MAPK9): 93%
- remaining binding at 10 µM (PIM2 [1]): 2.6%
- remaining binding at 10 µM (DRAK1): 4.3%
- Kd (PIM2 [2]): 2300 nM
- remaining binding at 10 µM (PKNB(M.tuberculosis)): 76%
- remaining activity at 10 µM (DYRK1B): 27%
- remaining activity at 10 µM (LTK): 95%
- remaining binding at 10 µM (PFPK5(P.falciparum)): 95%
